Results as given in ChEMBL document CHEMBL1125965, “Synthesis and pharmacological evaluation of novel Amino-prostanoids: potent and orally effective thromboxane A2 receptor antagonists” (Bioorg Med Chem Lett, 1991).
“And” between values parts separate entries of the source, which are not always exact repeats. Equal entries are not always repeated.

Key:
Thromboxane A2 receptor [1] = molecular target: T1, Thromboxane A2 receptor (Rattus norvegicus, UniProt P34978); assay: In vitro thromboxane A2 receptor antagonism through inhibition of U-46619-induced contraction of rat isolated thoracic aortic strip; format: functional; conditions: read-out: pA2 (converted)
T1 sequence (P34978 whole entry): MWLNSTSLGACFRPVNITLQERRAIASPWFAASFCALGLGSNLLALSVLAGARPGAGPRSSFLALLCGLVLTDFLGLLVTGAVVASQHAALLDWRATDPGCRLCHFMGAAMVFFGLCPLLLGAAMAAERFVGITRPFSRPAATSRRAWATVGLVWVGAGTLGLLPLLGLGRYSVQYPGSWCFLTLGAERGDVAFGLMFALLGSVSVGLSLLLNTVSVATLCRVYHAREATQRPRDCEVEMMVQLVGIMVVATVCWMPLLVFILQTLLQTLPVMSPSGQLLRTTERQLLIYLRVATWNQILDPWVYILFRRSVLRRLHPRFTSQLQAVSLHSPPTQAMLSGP

Thromboxane A2 receptor [2] = molecular target: T2, Thromboxane A2 receptor (Homo sapiens, UniProt P21731); assay: In vitro thromboxane A2 receptor antagonism through inhibition of U-46619-induced platelet aggregation in human whole blood; format: functional, tissue-based; conditions: read-out: pA2 (converted)
T2 sequence (P21731 whole entry): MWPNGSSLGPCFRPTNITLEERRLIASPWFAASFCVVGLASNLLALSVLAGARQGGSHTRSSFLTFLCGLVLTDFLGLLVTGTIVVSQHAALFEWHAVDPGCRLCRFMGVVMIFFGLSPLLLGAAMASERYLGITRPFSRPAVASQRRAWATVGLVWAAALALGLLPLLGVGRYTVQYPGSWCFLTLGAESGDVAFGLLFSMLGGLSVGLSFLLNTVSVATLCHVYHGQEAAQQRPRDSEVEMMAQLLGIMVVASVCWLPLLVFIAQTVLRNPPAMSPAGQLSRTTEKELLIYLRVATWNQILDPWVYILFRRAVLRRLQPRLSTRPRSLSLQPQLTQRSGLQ

[3] = molecular target: T3, Thromboxane A2 receptor (Rattus norvegicus) (UniProt P34978); assay: In vitro thromboxane receptor antagonism through inhibition of U-46619-induced contraction of rat isolated thoracic aortic strip; format: functional
T3 sequence (whole entry): T1 sequence (P34978 whole entry)

| SMILES | Kb (Thromboxane A2 receptor [1]) | Kb (Thromboxane A2 receptor [2]) | pKb [3] |
| --- | --- | --- | --- |
| CS(=O)(=O)Nc1cccc(-c2ccc(COC3CC[C@H](N4CCCCCC4)[C@H]3OC/C=C\CCC(=O)O)cc2)c1 (stereo not given in full) | 50.1 nM | 12.6 nM |  |
| O=C(O)CC/C=C\CO[C@H]1C(OCc2ccc(-c3ccccc3)cc2)CC[C@@H]1N1CCCCC1 (stereo not given in full) |  | 63.1 nM and 15.8 nM |  |
| CC(=O)NCc1ccccc1-c1ccc(COC2CC[C@H](N3CCCCCC3)[C@H]2OC/C=C\CCC(=O)O)cc1 (stereo not given in full) | 126 nM | 25.1 nM |  |
| NC(=O)Cc1ccccc1-c1ccc(COC2CC[C@H](N3CCCCCC3)[C@H]2OC/C=C\CCC(=O)O)cc1 (stereo not given in full) | 158 nM | 7.94 nM |  |
| O=C(O)CC/C=C\CO[C@H]1[C@@H](OCc2ccc(-c3cccc(CO)c3)cc2)CC[C@@H]1N1CCCCCC1 | 79.4 nM | 5.01 nM |  |
| O=C(O)CC/C=C\CO[C@H]1[C@@H](OCc2ccc(-c3ccc(CO)cc3)cc2)CC[C@@H]1N1CCCCCC1 | 50.1 nM | 3.98 nM |  |
| CS(=O)(=O)Nc1ccccc1-c1ccc(CO[C@H]2CC[C@H](N3CCCCCC3)[C@H]2OC/C=C\CCC(=O)O)cc1 | 63.1 nM | 6.31 nM |  |
| O=C(O)CC/C=C\CO[C@H]1C(OCc2ccc(-c3ccccc3CO)cc2)CC[C@@H]1N1CCCCCC1 (stereo not given in full) | 6.31 nM | 3.16 nM |  |
| NC(=O)c1ccc(-c2ccc(COC3CC[C@H](N4CCCCCC4)[C@H]3OC/C=C\CCC(=O)O)cc2)cc1 (stereo not given in full) | 20 nM | 3.16 nM |  |
| O=C(O)CC/C=C\CO[C@H]1C(OCc2ccc(-c3ccccc3O)cc2)CC[C@@H]1N1CCCCCC1 (stereo not given in full) | 20 nM | 15.8 nM |  |
| O=C(O)CC/C=C\CO[C@H]1C(OCc2ccc(-c3ccccc3CCO)cc2)CC[C@@H]1N1CCCCCC1 (stereo not given in full) | 31.6 nM | 2 nM |  |
| NC(=O)c1ccccc1-c1ccc(COC2CC[C@H](N3CCCCCC3)[C@H]2OC/C=C\CCC(=O)O)cc1 (stereo not given in full) | 15.8 nM | 15.8 nM |  |
| CC(=O)NCc1ccc(-c2ccc(COC3CC[C@H](N4CCCCCC4)[C@H]3OC/C=C\CCC(=O)O)cc2)cc1 (stereo not given in full) | 20 nM | 2.51 nM |  |
| O=C(O)CC/C=C\CO[C@H]1[C@@H](OCc2ccc(-c3ccccc3)cc2)CC[C@@H]1N1CCCCC1 | 31.6 nM and 50.1 nM | 10 nM and 7.94 nM |  |
| O=C(O)CC/C=C\CO[C@H]1[C@H](OCc2ccc(-c3ccccc3CO)cc2)CC[C@@H]1N1CCCCCC1 |  | 6.31 nM | 8.5 |
| NC(=O)Nc1ccccc1-c1ccc(COC2CC[C@H](N3CCCCCC3)[C@H]2OC/C=C\CCC(=O)O)cc1 (stereo not given in full) | 63.1 nM | 7.94 nM |  |
| O=C(O)CC/C=C\CO[C@H]1C(OCc2ccc(-c3ccc(CO)cc3)cc2)CC[C@@H]1N1CCCCCC1 (stereo not given in full) | 20 nM | 3.16 nM |  |
| CNS(=O)(=O)Cc1ccc(-c2ccc(COC3CC[C@H](N4CCCCCC4)[C@H]3OC/C=C\CCC(=O)O)cc2)cc1 (stereo not given in full) | 15.8 nM | 3.16 nM |  |
| O=C(O)CC/C=C\CO[C@@H]1[C@@H](OCc2ccc(-c3ccccc3)cc2)CC[C@@H]1N1CCCCC1 | 1000 nM | 100 nM |  |
| CNS(=O)(=O)Cc1ccccc1-c1ccc(COC2CC[C@H](N3CCCCCC3)[C@H]2OC/C=C\CCC(=O)O)cc1 (stereo not given in full) | 12.6 nM | 7.94 nM |  |
| O=C(O)CC/C=C\CO[C@H]1C(OCc2ccc(-c3ccc(O)cc3)cc2)CC[C@@H]1N1CCCCCC1 (stereo not given in full) | 6.31 nM | 6.31 nM |  |
| NC(=O)Cc1ccc(-c2ccc(COC3CC[C@H](N4CCCCCC4)[C@H]3OC/C=C\CCC(=O)O)cc2)cc1 (stereo not given in full) | 20 nM | 3.98 nM |  |
| O=C(O)CC/C=C\CO[C@H]1[C@@H](OCc2ccc(-c3ccccc3)cc2)CC[C@@H]1N1CCCCCC1 | 39.8 nM | 5.01 nM |  |
| O=C(O)CC/C=C\CO[C@@H]1C(OCc2ccc(-c3ccccc3)cc2)CC[C@@H]1N1CCCCC1 (stereo not given in full) | 15.8 nM | 39.8 nM |  |
| O=C(O)CC/C=C\CO[C@H]1C(OCc2ccc(-c3cccc(CO)c3)cc2)CC[C@@H]1N1CCCCCC1 (stereo not given in full) | 12.6 nM | 7.94 nM |  |
| CS(=O)(=O)Nc1ccccc1-c1ccc(COC2CC[C@H](N3CCCCCC3)[C@H]2OC/C=C\CCC(=O)O)cc1 (stereo not given in full) | 3.98 nM | 10 nM |  |
| O=C(O)CC/C=C\CO[C@H]1[C@@H](OCc2ccc(-c3ccccc3CO)cc2)CC[C@@H]1N1CCCCCC1 | 12.6 nM | 1.58 nM |  |
| O=C(O)CC/C=C\CO[C@H]1C(OCc2ccc(-c3ccccc3)cc2)CC[C@@H]1N1CCCCCC1 (stereo not given in full) | 25.1 nM | 12.6 nM |  |
